# What was measured:
# AcpS enzyme = AcpS enzyme (Escherichia coli, UniProt P24224); assay: Measurement of AcpS inhibition ([3H]acetyl-CoA incorporation into apo-ACP); assay type: biochemical; conditions: % activity vs blank-subtracted counts; for remaining activity at 500 µM / % AcpS activity @ 500 uM: test compound 500 uM; for activity at 50 µM / % AcpS activity at 50 uM: test compound 50 uM
# Protocol: [^3H]Acetyl-CoA was mixed as 1 volume of Perkin Elmer NET290 radiolabeled stock (e.g. 0.1 mCi/ml, 3.7 Ci/mmol in Na-acetate, pH 4.5-5.0=27 μM) with 1.2 volumes of 1 mM unlabelled acetyl-CoA (Sigma). Trichloroacetic acid was prepared as a 10% w/v solution. Bovine serum albumin was prepared as a 25 mg/ml solution in water. DTT was prepared as a 50 mM solution in water.
# • 1. A standard reaction contained the following in a total volume of 10 μl:
# • 2. Tubes were incubated at RT. [^3H]acetyl-CoA was added last to start the reaction. To stop the reaction, 2 μl was removed to a 1.5-ml microfuge tube containing 800 μl cold 10% TCA. Up to four time points were collected for each reaction, e.g. at 5 min, 10 min, 30 min, and 60 min. • 3. 20 μl of 25 mg/ml BSA was added to each tube, mixed and incubated on ice for 10 min, then centrifuged at 12,000 g for 5 min to form a pellet. Supernatant was removed using P1000. • 4. Each pellet was washed twice with 800 μl of cold 10% TCA each time, then centrifuged at 12,000 g for 5 min after each wash. The supernatant was discarded. Each pellet was resuspended in 50 μl of formic acid. The suspension was transferred to a scintillation vial and radioactivity was measured in 2 ml of liquid scintillation cocktail.
# The random (stochastic) error in scintillation counting is proportional to the square root of the counts (not dpm) accumulated in the counting period; i.e. 10% for 100, 3.3% for 1,000, 1% for 10,000, etc. Provided radioactive counts (dpm) are in the thousands, the assay provides useful data. Results are reported in terms of % activity with respect to the blank-subtracted counts for working substrate. A % activity of less than about 40% is indicative of AcpS enzyme inhibition by the test compound at that concentration.
# E. coli D22 = assay: MIC, NCCLS M7-A6 broth microdilution, E. coli D22; assay type: cell-based; conditions: 35 degrees Celsius; for MIC: Escherichia coli, D22, 16 to 20 h; for MIC E coli D22: 16 to 20 h
# Protocol: (§1) Susceptibilities to the compounds were determined using the National Committee for Clinical Laboratory Standards (NCCLS) M7-A6 broth microdilution method. Cation-adjusted Mueller-Hinton broth (Ca^2+, 25 μg/mL; Mg^2+, 12.5 μg/mL) microdilution panels were prepared to contain antimicrobial doubling dilution concentrations of an appropriate range. DMSO (dimethylsulfoxide) controls were incorporated into the panel to mimic the quantity of DMSO used in dissolving some of the compounds at the higher concentrations. Each final panel well volume was 100 μL with a bacterial inoculum of 5×10^5 CFU (colony forming units)/mL of the relevant bacterium. Panels were read following 16 to 20 h of incubation at 35 degrees Celsius in ambient air. The MIC (minimum inhibitory concentration) was defined as the lowest concentration of antimicrobial inhibiting visible growth.
# [1] = test system: Methicillin-Resistant Staph. aureus (MRSA); assay: MIC, NCCLS M7-A6 broth microdilution, MRSA; assay type: cell-based; conditions: 16 to 20 h, 35 degrees Celsius; for MIC: Staphylococcus aureus, MRSA
# Protocol: as §1
# Chain of AcpS enzyme (P24224 whole entry): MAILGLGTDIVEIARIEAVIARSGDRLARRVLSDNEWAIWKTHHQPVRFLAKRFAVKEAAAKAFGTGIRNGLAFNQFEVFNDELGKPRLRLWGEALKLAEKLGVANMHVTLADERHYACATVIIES
Compound,remaining activity at 500 µM (AcpS enzyme) [%],MIC (E. coli D22) [µM],MIC [1] [µM],activity at 50 µM (AcpS enzyme) [%],% AcpS activity @ 500 uM (AcpS enzyme) [%],MIC E coli D22 (E. coli D22) [µM],MIC MRSA [1] [µM],% AcpS activity at 50 uM (AcpS enzyme) [%]
"Cc1ccc(-c2ccc(-c3ccc(C)c4ccccc34)c(-c3nnn[nH]3)c2)c2ccccc12 [DNM0446, 5-(2,5-Bis(4-methylnaphthalen-1-yl)phenyl)-1H-tetrazole]",25.4,> 125,4,,,,,
"Cc1cc(Cl)ccc1-c1ccc(-c2ccc(Cl)cc2C)c(-c2nnn[nH]2)c1 [DNM0447, 5-(2,5-Bis(4-chloro-2-methylphenyl)phenyl)-1H-tetrazole]",0.47,> 125,15,32.6,,,,
c1ccc(Oc2ccc(-c3ccc(-c4ccc(Oc5ccccc5)cc4)c(-c4nn[nH]n4)c3)cc2)cc1 [DNM0453],,,,,23.76,>125,8,
Cc1cc(Cl)ccc1-c1cc(-c2nn[nH]n2)cc(-c2ccc(Cl)cc2C)c1 [DNM0457],,,,,0,60,8,1.56
"Cc1ccc(-c2cc(-c3nn[nH]n3)cc(-c3ccc(C)c4ccccc34)c2)c2ccccc12 [DNM0461, 5-(3,5-Bis(4-methylnaphthalen-1-yl)phenyl)-2H-tetrazole]",0.85,> 125,1,13.4,,,,
c1ccc(-c2ccccc2-c2cc(-c3nn[nH]n3)cc(-c3ccccc3-c3ccccc3)c2)cc1 [DNM0464],,,,,0.28,>125,1,9.03
"Clc1ccc(-c2cc(-c3ccc(Cl)cc3)cc(-c3nn[nH]n3)c2)cc1 [DNM0470, 5-(3,5-Bis(4-chlorophenyl)phenyl)-2H-tetrazole]",27.7,125,4,,,,,
Clc1ccc(-c2cc(-c3nn[nH]n3)cc(-c3ccccc3-c3ccccc3)c2)cc1 [DNM0479],,,,,0.1,>125,2,12.79
"Cc1ccc(-c2cc(-c3ccc(Cl)cc3)cc(-c3nnn[nH]3)c2)c2ccccc12 [DNM0480, 5-(4′-Chloro-5-(4-methylnaphthalen-1-yl)biphenyl-3-yl)-1H-tetrazole]",2.04,125,4,7.35,,,,
"Cc1ccc(-c2cc(-c3nnn[nH]3)sc2-c2ccc(C)c3ccccc23)c2ccccc12 [DNM0486, 5-(4,5-Bis(4-methylnaphthalen-1-yl)thiophen-2-yl)-1H-tetrazole]",0.16,> 125,2,0.82,,,,
"c1ccc(-c2ccccc2-c2cc(-c3nnn[nH]3)sc2-c2ccccc2-c2ccccc2)cc1 [DNM0489, 5-(4,5-Di(biphenyl-2-yl)thiophen-2-yl)-1H-tetrazole]",0,> 125,2,17.9,,,,
Clc1cccc(-c2ccccc2-c2cc(-c3nn[nH]n3)cc(-c3ccccc3-c3cccc(Cl)c3)c2)c1 [DNM0493],,,,,2.7,>125,4,25.28
"Cc1ccc(-c2cc(-c3nnn[nH]3)sc2-c2ccc(C)c(Cl)c2)cc1Cl [DNM0504, 5-(4,5-Bis(3-chloro-4-methylphenyl)thiophen-2-yl)-1H-tetrazole]",0.16,125,125,7.33,,,,
"Cc1ccc(-c2cc(-c3nnn[nH]3)sc2-c2ccc(C)c(C)c2)cc1C [DNM0509, 5-(4,5-Bis(3,4-dimethylphenyl)thiophen-2-yl)-1H-tetrazole]",0.2,> 125,15,31.1,,,,
CN(C)c1ccc(Cl)cc1-c1cc(-c2nn[nH]n2)cc(-c2cc(Cl)ccc2N(C)C)c1 [DNM0510],,,,,0.12,>125,4,8.4
Cc1ccc(-c2cc(-c3nn[nH]n3)cc(-c3ccc(C)cc3Br)c2)c(Br)c1 [DNM0511],,,,,0,>125,8,14.36
"CC(C)c1ccc(-c2cc(-c3nnn[nH]3)sc2-c2ccc(C(C)C)cc2)cc1 [DNM0512, 5-(4,5-Bis(4-isopropylphenyl)thiophen-2-yl)-1H-tetrazole]",0.7,> 125,8,37.3,,,,
Cc1ccc(-c2cc(-c3nn[nH]n3)cc(-c3cc(Cl)ccc3N(C)C)c2)c2ccccc12 [DNM0514],,,,,0.14,>125,4,5.73
Cc1ccc(-c2cc(-c3nn[nH]n3)cc(-c3ccc(C)cc3-c3ccccc3)c2)c(-c2ccccc2)c1 [DNM0516],,,,,5,>125,2,32.01
Cc1ccc(-c2cc(-c3nn[nH]n3)cc(-c3ccc(C)cc3-c3cccc(Cl)c3)c2)c(-c2cccc(Cl)c2)c1 [DNM0520],,,,,20.86,>125,2,
Cc1ccccc1-c1cc(-c2nn[nH]n2)cc(-c2ccccc2C)c1 [DNM0529],,,,,0.16,>125,30,91.56
"Cc1ccccc1-c1cc(-c2nnn[nH]2)sc1-c1ccccc1C [DNM0531, 5-(4,5-Bis(2-methylphenyl)thiophen-2-yl)-1H-tetrazole]",4.38,> 125,60,96.8,,,,
CC(C)c1ccccc1-c1cc(-c2nn[nH]n2)cc(-c2ccccc2C(C)C)c1 [DNM0532],,,,,0.22,>125,60,30.66
"CC(C)c1ccccc1-c1cc(-c2nnn[nH]2)sc1-c1ccccc1C(C)C [DNM0534, 5-(4,5-Bis(2-isopropylphenyl)thiophen-2-yl)-1H-tetrazole]",0,> 125,8,34,,,,
c1ccc(-c2cc(-c3nnn[nH]3)sc2-c2ccccc2)cc1 [DNM0535],,,,,3.48,>125,125,92.62
"c1ccc(Oc2ccccc2-c2cc(-c3nnn[nH]3)sc2-c2ccccc2Oc2ccccc2)cc1 [DNM0536, 5-(4,5-Bis(2-phenoxyphenyl)thiophen-2-yl)-1H-tetrazole]",0.2,125,8,8.25,,,,
"Clc1ccccc1-c1cc(-c2nnn[nH]2)sc1-c1ccccc1Cl [DNM0538, 5-(4,5-Bis(2-chlorophenyl)thiophen-2-yl)-1H-tetrazole]",0.58,> 125,30,82.2,,,,
"Fc1ccc(-c2cc(-c3nn[nH]n3)cc(-c3ccc(F)c4ccccc34)c2)c2ccccc12 [DNM0539, 5-(3,5-Bis(4-fluoronaphthalen-1-yl)phenyl)-2H-tetrazole]",39.4,> 125,8,,,,,
"Fc1ccc(-c2cc(-c3nnn[nH]3)sc2Cc2ccc(Cl)cc2)c2ccccc12 [DNM0587, 5-(5-(4-Chlorobenzyl)-4-(4-fluoronaphthalen-1-yl)thiophen-2-yl)-1H-tetrazole]",0,,8,2.13,,,,
"Clc1ccc(Cc2sc(-c3nnn[nH]3)cc2-c2ccccc2-c2ccccc2)cc1 [DNM0588, 5-(4-(Biphenyl-2-yl)-5-(4-chlorobenzyl)thiophen-2-yl)-1H-tetrazole]",0,,8,2.67,,,,

# Reference: patent US9012655B2, “Antimicrobial/adjuvant compounds and methods” (Denouamed, Inc., priority 2011, dated 2015)
